Data: patent publication US20020147137A1, “Medical use of alpha1-acid glycoprotein (AAG) or orosomucoid” (Hamosan Erzeugung Pharmazeutischer Grundstoffe Gesellschaft …, priority 1999, published 2002)

Experiments:
[1] = Withdrawal by means of plasma exchange (comparative): methadone, methadone metabolites and thebaine measured in urine; details: for Substance measured in urine: before 1. PE / before therapy; for concentration at 1 day / concentration at 2 day / concentration at 3 day / concentration at 4 day / concentration at 5 day / concentration at 6 day / concentration at 7 day / concentration at 17 day / concentration at 24 day / concentration at 31 day: human, in vivo
From the text: In the withdrawal therapy of a methadone addict, one of the inventors has practised the method of plasma exchange (PE) for assisting and accelerating the removal of methadone from the body, i.e., blood was taken from the patient, the cellular components were separated and re-infused into the body, and instead of the patient's own plasma portion, the plasma of a donor was supplied.
The patient was 2 x connected to the plasmapheresis (1st and 3rd day). […] Besides, the coagulation parameters were measured because of the hypercoagulability.

[2] = test system: isolated perfused rat livers; details: protein added to perfusate; cited from earlier work
[3] = test system: patient in methadone withdrawal; assay: Methadone withdrawal by administration of α1-acid glycoprotein: clinical course; format: in vivo, human (patient)
Procedure: The patient's circulation is stable, the patient is co-operative, a venous cannula and a peripheral venous catheter on the left side are set. Immediately after admission, beginning of sedation with Dormicum 0.4 mg/kg/d, Clonidin 0.02 mg/kg/d. Dormicum bolus administration at admission.
Volume substitution with Elohaest, human albumin and electrolyte solution.
From 4:05 p.m. to 4:15 p.m., renewed hemodilution: 400 ml of own blood was drawn.
Urinating is without any problems and spontaneous.
The patient's only problems are nicotine withdrawal.
Therapy with Clonidin and Dormicum is changed to oral (4×0.075 mg Catapresan and 4×7.5 mg Dormicum per os) with sufficient magnesium substitution in addition. Subjectively, the patient feels well and is free from any discomfort.
Removal of the peripheral venous catheter, continuation of the oral therapy, the patient is moved to the LNKH while being in a good general state and subjectively feeling well.

Compound	Substance measured in urine [1] [µg/mL]	concentration at 1 day [1] [ng/mL]	concentration at 2 day [1] [ng/mL]	concentration at 3 day [1] [ng/mL]	concentration at 4 day [1] [ng/mL]	concentration at 5 day [1] [ng/mL]	concentration at 6 day [1] [ng/mL]	concentration at 7 day [1] [ng/mL]	concentration at 17 day [1] [ng/mL]	concentration at 24 day [1] [ng/mL]	concentration at 31 day [1] [ng/mL]	influence on elimination of drugs capable of being bound [2]	influence on elimination of nonbinding drugs [2]	tolerability after first administration ([3]; 3 grams in 500 ml of infusion solution at 10 a.m.)	acute reaction after second administration ([3]; 6 grams in merely 150 ml of infusion solution at 4:30 p.m.)	physical withdrawal symptoms ([3]; 9/20/97, day after AAG administration)	physical withdrawal symptoms ([3]; 9/21/97, second day after AAG administration)	withdrawal symptoms after AAG administration ([3]; after the short crisis following the 2nd partial amount)	total time until treatment could be terminated ([3]; methadone withdrawal with AAG, 2nd patient)
CCC(=O)C(CC(C)N(C)C)(c1ccccc1)c1ccccc1 (racemic) [methadone, reference compound]	15	3000	1900	500	500	400	300	500	0	0	0	–	–	–	–	–	–	–	–
α1-acid glycoprotein	–	–	–	–	–	–	–	–	–	–	–	slowed down	no influence	first symptoms with slight sweating, otherwise no problems so far	symptoms of an acute reaction, similar to an allergy	no physical withdrawal symptoms	no particular physical withdrawal symptoms	intensive recovery phase without any withdrawal symptoms	three
COC1=CC=C2[C@H]3Cc4ccc(OC)c5c4[C@@]2(CCN3C)[C@H]1O5 [thebaine]	7	0	0	0	0	0	0	0	0	0	0	–	–	–	–	–	–	–	–
